What was measured:
[1] = subjects taking INT131 vs those taking pioglitazone; DePaoli et al. 2014; cited from earlier work
[2] = test system: adiponectin; assay: 14-day study: serum adiponectin levels in healthy subjects; assay type: in vivo, human; settings: 0.1 mg INT131 daily for 14 days
Procedure: A study was conducted to determine the effect of INT131 on serum adiponectin levels. Thirty healthy subjects were randomly selected to receive either placebo, 0.1 mg INT131, 1 mg INT131 or 4 mg INT131 daily for 14 days. To measure adiponectin levels blood was drawn at Days 1, 4, 8 and 14.

[3] = test system: adiponectin; assay: 24-week randomized, double-blind, placebo-controlled study: serum adiponectin levels in subjects with type 2 diabetes; assay type: in vivo, human; settings: for Mean Adiponectin Week 24 / Mean Adiponectin Week 0: type 2 diabetes subjects; for Mean Adiponectin Week 0: baseline (Week 0)
Procedure: A randomized, double-blind, placebo-controlled, 24-week study was conducted in which adiponectin levels were measured. […] 367 subjects with type 2 diabetes (TD2)—a disease in which patient adiponectin levels are reduced-were randomly assigned to receive either 0.5, 1, 2 or 3 milligrams (“mg”) of INT131 besylate, 45 mg of pioglitazone or placebo daily for 24 weeks. To measure adiponectin levels blood was drawn at Weeks 0, 2, 6, 12 and 24.
At baseline (Week 0) mean adiponectin levels were 1.94 micrograms per milliliter (“μg/mL”). The mean adiponectin levels at baseline and Week 24, and the mean change in adiponectin levels from baseline (Week 0) to Week 24 are disclosed in Table 1, below. The standard deviation for samples tested in each group is listed in (parenthesis). Mean baseline adiponectin values were similar for the treatment groups.

| SMILES | edema, weight gain and hemodilution versus pioglitazone [1] | change in serum adiponectin levels from Day 1 to Day 14 and over placebo [2] | treatment comparison of adiponectin levels with pioglitazone 45 mg ([3]; 0.5 mg, 1 mg and 3 mg doses of INT131 vs pioglitazone 45 mg, p≤0.0408) | treatment comparison of adiponectin levels with placebo ([3]; 1 mg, 2 mg and 3 mg doses of INT131 vs placebo, p≤0.0109) | Mean Adiponectin Week 24 ([3]; Week 24, 0.5 mg INT131 daily) [µg/mL] | Mean Adiponectin Week 24 ([3]; Week 24, 1 mg INT131 daily) [µg/mL] | Mean Adiponectin Week 24 ([3]; Week 24, 2 mg INT131 daily) [µg/mL] | Mean Adiponectin Week 24 ([3]; Week 24, 3 mg INT131 daily) [µg/mL] | Mean Adiponectin Week 0 ([3]; 0.5 mg INT131 daily group) [µg/mL] | Mean Adiponectin Week 0 ([3]; 1 mg INT131 daily group) [µg/mL] | Mean Adiponectin Week 0 ([3]; 2 mg INT131 daily group) [µg/mL] | Mean Adiponectin Week 0 ([3]; 3 mg INT131 daily group) [µg/mL] | Mean Adiponectin Week 24 ([3]; Week 24, 45 mg pioglitazone daily) [µg/mL] | Mean Adiponectin Week 0 ([3]; 45 mg pioglitazone daily group) [µg/mL] |
| --- | --- | --- | --- | --- | --- | --- | --- | --- | --- | --- | --- | --- | --- | --- |
| O=S(=O)(Nc1cc(Cl)c(Oc2cnc3ccccc3c2)c(Cl)c1)c1ccc(Cl)cc1Cl [INT131] | less edema, weight gain, and hemodilution | no significant change | statistically significant | statistically significant | 2.28 | 3.15 | 5.14 | 5.83 | 1.73 | 1.87 | 1.87 | 2.00 |  |  |
| CCc1ccc(CCOc2ccc(CC3SC(=O)NC3=O)cc2)nc1 (centres unmarked) [Pioglitazone, pioglitazone, reference compound] |  |  |  |  |  |  |  |  |  |  |  |  | 5.28 | 2.32 |
